# Values of other authors, collected in patent US12637441B2, “Prodrugs of the tyrosine kinase inhibitor for treating cancer” (RISEN (SUZHOU) PHARMA TECH CO., LTD., priority 2019, dated 2026).
smiles,measurement,value
"CNC(=O)c1ccccc1Sc1ccc2c(/C=C/c3ccccn3)n[nH]c2c1 [axitinib, N-methyl-2-((3-((1E)-2-(2-pyridinyl)ethenyl)-1H-indazol-6-yl)thio)benzamide]",patients in whom the most common side effects occur,more than 20%
